For five molecules, Kd results are on record in ChEMBL document CHEMBL1833808, “Identification of novel BRAF kinase inhibitors with structure-based virtual screening” (Bioorg Med Chem Lett, 2011).

What is called Kd is the free concentration of one partner at which half of the binding sites on the other are occupied at equilibrium, for simple one-to-one binding. A high value points to a looser complex.

Chain of Serine/threonine-protein kinase B-raf (P15056 whole entry): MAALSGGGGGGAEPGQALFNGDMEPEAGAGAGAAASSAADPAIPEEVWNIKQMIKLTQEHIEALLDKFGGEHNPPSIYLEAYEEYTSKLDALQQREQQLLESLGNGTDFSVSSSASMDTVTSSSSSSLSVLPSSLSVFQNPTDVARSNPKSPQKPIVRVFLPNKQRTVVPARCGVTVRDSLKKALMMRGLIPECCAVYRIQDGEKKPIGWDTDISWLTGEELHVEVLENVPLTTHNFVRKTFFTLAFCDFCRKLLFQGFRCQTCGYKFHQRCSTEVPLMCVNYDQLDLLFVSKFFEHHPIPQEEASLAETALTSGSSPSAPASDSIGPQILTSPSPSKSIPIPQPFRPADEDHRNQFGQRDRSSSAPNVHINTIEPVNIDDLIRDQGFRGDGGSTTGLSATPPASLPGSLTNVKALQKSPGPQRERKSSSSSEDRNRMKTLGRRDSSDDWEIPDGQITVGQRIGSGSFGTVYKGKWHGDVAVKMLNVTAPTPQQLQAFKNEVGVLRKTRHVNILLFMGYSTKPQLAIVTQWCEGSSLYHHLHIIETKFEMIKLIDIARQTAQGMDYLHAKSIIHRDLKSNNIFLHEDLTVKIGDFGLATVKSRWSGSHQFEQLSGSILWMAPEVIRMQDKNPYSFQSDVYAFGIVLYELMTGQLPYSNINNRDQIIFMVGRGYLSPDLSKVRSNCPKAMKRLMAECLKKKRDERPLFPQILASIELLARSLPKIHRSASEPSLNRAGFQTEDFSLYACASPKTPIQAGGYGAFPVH

This experiment has as its target Serine/threonine-protein kinase B-raf (Homo sapiens, UniProt P15056). Description: Inhibition of BRAF.
Regarding `NC(=O)c1ccc(Nc2nnc(-c3ccc(O)cc3)c3ccccc23)cc1`, the affinity, expressed as Kd, was 2.1 µM. For `CCOC(=O)c1cccc(Nc2nc(N)nc3[nH]cnc23)c1` the value was 0.7 µM.

As for `Cc1ccc(/C=C/c2nc(N)nc(-c3ccccc3O)n2)o1`, binding was put at a Kd of 20 µM.

With `O=C1N/C(=N\c2ccc(O)cc2)S/C1=C\c1c[nH]c2ccccc12`, the Kd amounted to 18.5 µM. With `Cc1ccc(CNC(=O)c2c(N)n(-c3cccc(O)c3)c3nc4ccccc4nc23)cc1` the figure was 12.6 µM.
